The target in one assay is T1, recombinant human CLK3 (Homo sapiens, UniProt P49761).
T1 construct: purchased Thermo Fisher Scientific PV3826
The assay can be described thus: CLK3 kinase assay (LANCE Ultra). The assay is classed as biochemical. The note with it: 0.5 nM CLK3, 300 μM ATP, 3 hours at 30° C. Here is the method:
CLK3 kinase activity was measured using the LANCE® Ultra technology (PerkinElmer) essentially as recommended by the supplier. Briefly, 2.5 μL of test sample at 4× the desired final concentration in 4% DMSO were dispensed into white, low volume, round bottom, 384 well plates (Corning, cat. no. 4512). 5 μL of a mixture containing recombinant human CLK3 (Thermo Fisher Scientific, cat. no. PV3826) and the labeled peptide substrate ULight™-CREBtide (PerkinElmer, cat. no. TRF0107) prepared in 1.33× kinase buffer (Thermo Fisher Scientific, cat. no. PV3189) were then added. Finally, the reactions were started by adding 2.5 μL of a 4× solution of ATP in kinase buffer. The plates were sealed with adhesive foils and incubated for 3 hours at 30° C. in the dark. The final concentrations of CLK3, ULight™—CREBtide, and ATP were 0.5 nM, 50 nM, and 300 μM, respectively. 5 μL of 40 mM EDTA were then added to terminate the reactions. The Eu-anti-phospho-CREB antibody (PerkinElmer, cat. no. TRF0200) diluted in LANCE® detection buffer (PerkinElmer, cat. no. CR97) was then added to a final concentration of 2 nM and the reactions were incubated for 1 hour at room temperature in the dark. The signals were measured using a Synergy 4 reader (BioTek) with a 320/80 nm filter for the excitation and 620/10 nm and 665/8 nm filters for the donor and acceptor emission, respectively. […] IC50 values were calculated by fitting the concentration-response data to a sigmoidal 4-parameter logistic model.
Background: Time-resolved FRET reads energy transfer from a long-lived donor to a nearby acceptor.

In the next assay the test system is MDA-MB-231 cells. The assay can be described thus: MDA-MB-231 proliferation assay. The format is cell-based. The note with it: Homo sapiens, 72 hours, YO-PRO-1 readout. Here is the method:
MDA-MB-231 Proliferation Assay
MDA-MB-231 cells were cultivated in DMEM High Glucose (4.5 g/L) with L-Glutamine (BioConcept, cat. no. 1-26F03-I) supplemented with 1% Na-pyruvate (Sigma, cat. no. S8636), 1% Penicillin-Streptomycin (BioConcept, cat. no. 4-01F00H), and 10% FBS (Sigma, cat. no. F9665) using standard techniques. Cells were seeded in black, clear-bottom 384 well plates for tissue culture (Greiner Bio-One, cat. no. 781091) at a density of 750 cells per well in 20 μL medium and the plates were incubated overnight at 37° C. with 5% CO2 prior to treatment. Experimental compounds were serially diluted in DMSO to 200× the desired final concentrations. The solutions were then diluted 1:40 with culture medium and 5 μL aliquots were mixed into the wells containing the cells. The final concentration of DMSO was 0.5%. The plates were incubated for 72 hours and cell numbers were then measured using YO-PRO™-1 Iodide (ThermoFisher Scientific, cat. no. Y3603) essentially as recommended by the manufacturer. […] The plates were incubated at room temperature in the dark for 30 minutes. Fluorescence intensity signals were then measured on a Synergy 4 reader (BioTek) using 485/20 nm and 530/25 nm filters for the excitation and emission, respectively. Relative proliferation values were calculated by normalizing the raw data using DMSO-treated cells (100% proliferation) and the signals obtained from cells that were evaluated at the time of compound addition (0% proliferation). The concentration-response data were fitted to a sigmoidal 4-parameter logistic model with the maximum constrained to 100%.

Structures are written as SMILES. Where only a bound is given, the exact number is not on record here.

T1 sequence (P49761 whole entry): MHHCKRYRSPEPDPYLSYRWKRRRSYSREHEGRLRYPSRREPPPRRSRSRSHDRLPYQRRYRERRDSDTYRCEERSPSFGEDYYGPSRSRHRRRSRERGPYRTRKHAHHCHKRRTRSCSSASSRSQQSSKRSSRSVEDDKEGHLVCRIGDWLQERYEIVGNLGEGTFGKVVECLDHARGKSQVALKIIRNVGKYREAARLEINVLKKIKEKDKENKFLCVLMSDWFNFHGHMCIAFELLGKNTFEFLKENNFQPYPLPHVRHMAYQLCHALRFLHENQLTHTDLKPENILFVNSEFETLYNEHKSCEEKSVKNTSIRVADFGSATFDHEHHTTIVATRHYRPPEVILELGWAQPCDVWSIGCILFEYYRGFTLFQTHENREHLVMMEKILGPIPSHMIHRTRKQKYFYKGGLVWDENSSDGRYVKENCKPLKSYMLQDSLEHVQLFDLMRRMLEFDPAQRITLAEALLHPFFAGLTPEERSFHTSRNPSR

For the molecule `CC1(C)/C(=N/OCCN2CCCCC2)c2cc(O[C@H]3CC[C@H](N)CC3)ccc2-c2ncnc(N)c21` [Example 16, (6Z)-8-(trans-4-aminocyclohexoxy)-5,5-dimethyl-6-[2-(1-piperidyl)ethoxyimino]benzo[h]quinazolin-4-amine], the IC50 on recombinant human CLK3 was found to be 265 nM. Moreover, the 50% growth inhibitory concentration (GI50) with MDA-MB-231 cells was > 2000 nM.
The corresponding values for `CC1(C)/C(=N/OC[C@@H]2CNC(=O)O2)c2cc(Br)ccc2-c2ncnc(N)c21` [Example 51, (5S)-5-[[(Z)-(4-amino-8-bromo-5,5-dimethyl-benzo[h]quinazolin-6-ylidene)amino]oxymethyl]oxazolidin-2-one] are 7.26 nM and 511 nM.
The corresponding values for `CC1(C)/C(=N/OC[C@H]2CNC(=O)O2)c2cc(O[C@H]3CC[C@H](N)CC3)ccc2-c2ncnc(N)c21` [Example 37, (5R)-5-[[(Z)-[4-amino-8-(trans-4-aminocyclohexoxy)-5,5-dimethyl-benzo[h]quinazolin-6-ylidene]amino]oxymethyl]oxazolidin-2-one] are 59 nM and > 2000 nM.
The corresponding values for `COC(=O)CO/N=C1\c2cc(O[C@H]3CC[C@H](N)CC3)ccc2-c2ncnc(N)c2C1(C)C` [Example 31, methyl 2-[(Z)-[4-amino-8-(trans-4-aminocyclohexoxy)-5,5-dimethyl-benzo[h]quinazolin-6-ylidene]amino]oxyacetate] are 76.2 nM and 1580 nM.
Turning to `COc1ccc2c(c1)/C(=N\OC[C@H]1CNC(=O)O1)C(C)(C)c1c(N)ncnc1-2` [Example 12, (5R)-5-[[(Z)-(4-amino-8-methoxy-5,5-dimethyl-benzo[h]quinazolin-6-ylidene)amino]oxymethyl]oxazolidin-2-one], the half-inhibitory concentration (IC50) on recombinant human CLK3 was found to be 129 nM. Besides, the concentration for 50% growth inhibition (GI50) with MDA-MB-231 cells was > 2000 nM.
Taken in the same sequence, the figures for `CN(C)CCO/N=C1\c2cc(O[C@H]3CC[C@H](N)CC3)ccc2-c2ncnc(N)c2C1(C)C` [Example 35, (6Z)-8-(trans-4-aminocyclohexoxy)-6-[2-(dimethylamino)ethoxyimino]-5,5-dimethyl-benzo[h]quinazolin-4-amine] were 144 nM and 1480 nM.
Taken in the same sequence, the figures for `CC1(C)/C(=N/OC[C@@H]2CNC(=O)O2)c2cc(C#N)ccc2-c2ncnc(N)c21` [Example 92, (6Z)-4-amino-5,5-dimethyl-6-[[(5S)-2-oxooxazolidin-5-yl]methoxyimino]benzo[h]quinazoline-8-carbonitrile] were 142 nM and > 2000 nM.
The corresponding values for `CO/N=C1\c2cc(OC)c(Cl)cc2-c2ncnc(N)c2C1(C)C` [Example 41, (6Z)-9-chloro-8-methoxy-6-methoxyimino-5,5-dimethyl-benzo[h]quinazolin-4-amine] are 92.8 nM and > 2000 nM.
As for `CC1(C)/C(=N/OCCCS(C)(=O)=O)c2cc(O[C@H]3CC[C@@H](N)CC3)ccc2-c2ncnc(N)c21` [Example 110, (6Z)-8-(cis-4-aminocyclohexoxy)-5,5-dimethyl-6-(3-methylsulfonylpropoxyimino)benzo[h]quinazoline-4-amine], the 50% inhibitory concentration (IC50) at recombinant human CLK3 worked out at 31.8 nM. In addition, the GI50 with MDA-MB-231 cells is > 2000 nM.
Taken in the same sequence, the figures for `CC1(C)/C(=N/OCCCC(F)(F)F)c2cc(O[C@H]3CC[C@@H](N)CC3)ccc2-c2ncnc(N)c21` [Example 114, (6Z)-8-(cis-4-aminocyclohexoxy)-5,5-dimethyl-6-(4,4,4-trifluorobutoxyimino)benzo[h]quinazolin-4-amine] were 48.9 nM and 373 nM.
Taken in the same sequence, the figures for `COc1ccc2c(c1)/C(=N\OCCCN)C(C)(C)c1c(N)ncnc1-2` [Example 59, (6Z)-6-(3-aminopropoxyimino)-8-methoxy-5,5-dimethyl-benzo[h]quinazolin-4-amine] were 265 nM and > 2000 nM.
Taken in the same sequence, the figures for `COc1ccc2c(c1)/C(=N\OCC(=O)NCCN)C(C)(C)c1c(N)ncnc1-2` [Example 8, N-(2-aminoethyl)-2-[(Z)-(4-amino-8-methoxy-5,5-dimethyl-benzo[h]quinazolin-6-ylidene)amino]oxy-acetamide] were 73.2 nM and > 2000 nM.
Take `CN1C[C@@H](CO/N=C2\c3cc(Br)ccc3-c3ncnc(N)c3C2(C)C)OC1=O` [Example 53, (5S)-5-[[(Z)-(4-amino-8-bromo-5,5-dimethyl-benzo[h]quinazolin-6-ylidene)amino]oxymethyl]-3-methyl-oxazolidin-2-one]: the IC50 on recombinant human CLK3 is < 1.5 nM. Moreover, the GI50 with MDA-MB-231 cells amounted to 194 nM.
Taken in the same sequence, the figures for `CO/N=C1\c2cc(N(C)[C@H]3CC[C@H](N)CC3)ccc2-c2ncnc(N)c2C1(C)C` [Example 44, (6Z)—N8-(trans-4-aminocyclohexyl)-6-methoxyimino-N8,5,5-trimethyl-benzo[h]quinazoline-4,8-diamine] were 15.8 nM and > 2000 nM.
Taken in the same sequence, the figures for `CN1C[C@@H](CO/N=C2\c3cc(Cl)ccc3-c3ncnc(N)c3C2(C)C)OC1=O` [Example 52, (5S)-5-[[(Z)-(4-amino-8-chloro-5,5-dimethyl-benzo[h]quinazolin-6-ylidene)amino]oxymethyl]-3-methyl-oxazolidin-2-one] were < 1.5 nM and 445 nM.
Taken in the same sequence, the figures for `CC(=O)c1ccc2c(c1)/C(=N\OC[C@@H]1CNC(=O)O1)C(C)(C)c1c(N)ncnc1-2` [Example 98, (5S)-5-[[(Z)-(8-acetyl-4-amino-5,5-dimethyl-benzo[h]quinazolin-6-ylidene)amino]oxymethyl]oxazolidin-2-one] were 26 nM and > 2000 nM.
Regarding `COc1ccc2c(c1)/C(=N\OC[C@H]1CNC(=O)C1)C(C)(C)c1c(N)ncnc1-2` [Example 73, (4R)-4-[[(Z)-(4-amino-8-methoxy-5,5-dimethyl-benzo[h]quinazolin-6-ylidene)amino]oxymethyl]pyrrolidin-2-one], the half-maximal inhibitory concentration (IC50) at recombinant human CLK3 came out at 385 nM. Besides, the GI50 with MDA-MB-231 cells is > 2000 nM.
The corresponding values for `COCCO/N=C1\c2cc(O[C@H]3CC[C@@](C)(N)CC3)ccc2-c2ncnc(N)c2C1(C)C` [Example 103, (6Z)-8-(cis-4-amino-4-methyl-cyclohexoxy)-6-(2-methoxyethoxyimino)-5,5-dimethyl-benzo[h]quinazoline-4-amine] are 28.3 nM and 184 nM.
Taken in the same sequence, the figures for `CC1(C)/C(=N/OCc2ccc(C#N)cc2)c2cc(O[C@H]3CC[C@H](N)CC3)ccc2-c2ncnc(N)c21` [Example 20, 4-[[(Z)-[4-amino-8-(trans-4-aminocyclohexoxy)-5,5-dimethyl-benzo[h]quinazolin-6-ylidene]amino]oxymethyl]benzonitrile] were 237 nM and > 2000 nM.
The corresponding values for `CO/N=C1\c2cc(O)ccc2-c2ncnc(N)c2C1(C)C` [Example 61, (6Z)-4-amino-6-methoxyimino-5,5-dimethyl-benzo[h]quinazolin-8-ol] are 53.6 nM and > 2000 nM.
As for `CC1(C)/C(=N/OCc2ccccc2)c2cc(O[C@H]3CC[C@H](N)CC3)ccc2-c2ncnc(N)c21` [Example 3, (6Z)-8-(trans-4-aminocyclohexoxy)-6-benzyloxyimino-5,5-dimethyl-benzo[h]quinazolin-4-amine], at recombinant human CLK3, the 50% inhibitory concentration (IC50) turned out to be 200 nM. The GI50 with MDA-MB-231 cells is 1960 nM.
Taken in the same sequence, the figures for `CC1(C)/C(=N/OCCO)c2cc(Br)ccc2-c2ncnc(N)c21` [Example 86, 2-[(Z)-(4-amino-8-bromo-5,5-dimethyl-benzo[h]quinazolin-6-ylidene)amino]oxyethanol] were 63 nM and > 2000 nM.

The term IC50 denotes the point on the concentration scale where inhibition reaches its midpoint. For orientation: GI50 means the concentration that inhibits growth by half.
